Assay results taken from patent US9708306B2, “Benzimidazole derivatives and preparation process and pharmaceutical uses thereof” (WUHAN LL SCIENCE AND TECHNOLOGY DEVELOPMENT CO., LTD, priority 2015, dated 2017).
Read-outs that look alike come from different tables or passages of the source.

Legend:
[1] = test system: spontaneously hypertensive rats (SHR); assay: Effect on reducing blood pressure of spontaneously hypertensive rats (SHR) by multiple oral administrations; type: in vivo; conditions: for blood pressure reduction effect compared with Azilsartan medoxomil / reduction effects on the heart rate of SHR rats: result in words; for reduction effects on the heart rate of SHR rats: during the whole administration
normal rats = assay: Effect on blood pressure of normal rats by single oral administration; type: in vivo, Wistar rats; conditions: Rattus norvegicus, po, single, normal rats; for inhibition in vivo at 0.5 mg/kg / inhibition in vivo at 1 mg/kg / inhibition in vivo at 2 mg/kg: 8 h, read-out: blood pressure reduction at 8 h after the administration; for inhibition in vivo at 0.5 mg/kg / change in vivo at 0.5 mg/kg: 0.5 mg/kg p.o.; for inhibition in vivo at 1 mg/kg / change in vivo at 1 mg/kg: 1.0 mg/kg p.o.; for inhibition in vivo at 2 mg/kg / change in vivo at 2 mg/kg: 2.0 mg/kg p.o.; for change in vivo at 0.5 mg/kg / change in vivo at 1 mg/kg / change in vivo at 2 mg/kg: read-out: variations on heart rate
[2] = test system: renovascular hypertensive rats; assay: Effect on reducing blood pressure of renovascular hypertensive rats by single oral administration; type: in vivo, Wistar rats; conditions: for change in vivo at 0.5 mg/kg / inhibition in vivo at 0.5 mg/kg / change in vivo at 1 mg/kg / inhibition in vivo at 1 mg/kg / change in vivo at 2 mg/kg / inhibition in vivo at 2 mg/kg: Rattus norvegicus, single oral administration; for change in vivo at 0.5 mg/kg / change in vivo at 1 mg/kg / change in vivo at 2 mg/kg: RHR, read-out: Variations on heart rate; for inhibition in vivo at 0.5 mg/kg / inhibition in vivo at 1 mg/kg / inhibition in vivo at 2 mg/kg: two-kidney one-clip RHR, measured 1-10 h, read-out: Maximum blood pressure reduction; for blood pressure reduction at 24 hours after the administration / blood pressure reduction effect compared with Azilsartan medoxomil / lasting time of the blood pressure reduction effect compared with Azilsartan medoxomil: renal artery-ligated rat; for blood pressure reduction at 24 hours after the administration: dose not stated; for blood pressure reduction effect compared with Azilsartan medoxomil / lasting time of the blood pressure reduction effect compared with Azilsartan medoxomil: result in words
[3] = Rattus norvegicus, 0.5 mg/kg oral once per day, SHR, 1 hour after the administration, read-out: Maximum blood pressure reduction, 1st-day administration
[4] = Rattus norvegicus, 0.5 mg/kg oral once per day, SHR, 1 hour after the administration, read-out: Maximum blood pressure reduction, 7th-day administration
[5] = Rattus norvegicus, 0.5 mg/kg oral once per day, SHR, 1 hour after the administration, read-out: Maximum blood pressure reduction, 14th-day administration
[6] = Rattus norvegicus, 1.0 mg/kg oral once per day, SHR, 1 hour after the administration, read-out: Maximum blood pressure reduction, 1st-day administration
[7] = Rattus norvegicus, 1.0 mg/kg oral once per day, SHR, 1 hour after the administration, read-out: Maximum blood pressure reduction, 7th-day administration
[8] = Rattus norvegicus, 1.0 mg/kg oral once per day, SHR, 1 hour after the administration, read-out: Maximum blood pressure reduction, 14th-day administration
[9] = Rattus norvegicus, 1.0 mg/kg oral, SHR, read-out: Heart Rate (effect on reducing heart rate)
[10] = Rattus norvegicus, 2.0 mg/kg oral once per day, SHR, 1 hour after the administration, read-out: Maximum blood pressure reduction, 1st-day administration
[11] = Rattus norvegicus, 2.0 mg/kg oral once per day, SHR, 1 hour after the administration, read-out: Maximum blood pressure reduction, 7th-day administration
[12] = Rattus norvegicus, 2.0 mg/kg oral once per day, SHR, 1 hour after the administration, read-out: Maximum blood pressure reduction, 14th-day administration
[13] = Rattus norvegicus, 2.0 mg/kg oral, SHR, read-out: Heart Rate (effect on reducing heart rate)

| SMILES | inhibition in vivo at 0.5 mg/kg [1, 3] [%] | inhibition in vivo at 0.5 mg/kg [1, 4] [%] | inhibition in vivo at 0.5 mg/kg [1, 5] [%] | inhibition in vivo at 1 mg/kg [1, 6] [%] | inhibition in vivo at 1 mg/kg [1, 7] [%] | inhibition in vivo at 1 mg/kg [1, 8] [%] | inhibition in vivo at 2 mg/kg [1, 10] [%] | inhibition in vivo at 2 mg/kg [1, 11] [%] | inhibition in vivo at 2 mg/kg [1, 12] [%] | inhibition in vivo at 0.5 mg/kg (normal rats) [%] | inhibition in vivo at 1 mg/kg (normal rats) [%] | inhibition in vivo at 2 mg/kg (normal rats) [%] | change in vivo at 0.5 mg/kg (normal rats) [%] | change in vivo at 1 mg/kg (normal rats) [%] | change in vivo at 2 mg/kg (normal rats) [%] | change in vivo at 0.5 mg/kg [2] [%] | inhibition in vivo at 0.5 mg/kg [2] [%] | change in vivo at 1 mg/kg [2] [%] | inhibition in vivo at 1 mg/kg [2] [%] | change in vivo at 2 mg/kg [2] [%] | further results |
| --- | --- | --- | --- | --- | --- | --- | --- | --- | --- | --- | --- | --- | --- | --- | --- | --- | --- | --- | --- | --- | --- |
| CCOc1nc2cccc(C(=O)OCOC(=O)C(C)(C)C)c2n1Cc1ccc(-c2ccccc2-c2noc(=O)[nH]2)cc1 [QR01005] | 16 ± 4.8 | 18 ± 5.2 | 21 ± 3.9 | 38 ± 3.7 | 40 ± 6.2 | 42 ± 6.1 | 45 ± 4.8 | 41 ± 6.2 | 45 ± 7.2 | 6.3 ± 1.3 | 3.6 ± 2.1 | 4.8 ± 2.3 | -3 ± 1 | -6 ± 6 | 8 | -10 ± 3 | 16 ± 3.2 | -21 ± 6 | 36 ± 3.1 | -25 ± 6 | inhibition in vivo at 1 mg/kg [1, 9]: 23 ± 6%; inhibition in vivo at 2 mg/kg [1, 13]: 21 ± 4%; inhibition in vivo at 5 mg/kg ([1]; Rattus norvegicus, 5 mg/kg oral, SHR, read-out: Heart Rate (effect on reducing heart rate)): 18 ± 5%; blood pressure reduction effect compared with Azilsartan medoxomil ([1]; SHR): obviously superior to that of the Azilsartan medoxomil positive drug; reduction effects on the heart rate of SHR rats [1]: significant reduction effects on the heart rate; inhibition in vivo at 2 mg/kg [2]: 43 ± 3.5%; blood pressure reduction at 24 hours after the administration [2]: 21%; blood pressure reduction effect compared with Azilsartan medoxomil [2]: obviously superior to that of the Azilsartan medoxomil positive drug; lasting time of the blood pressure reduction effect compared with Azilsartan medoxomil [2]: close to that of Azilsartan medoxomil |
| CCOc1nc2cccc(C(=O)OC(C)OC(=O)OCc3no[n+]([O-])c3C)c2n1Cc1ccc(-c2ccccc2-c2noc(=O)[nH]2)cc1 (stereo not drawn) [QR01021] | 23 ± 6.4 | 24 ± 4.1 | 25 ± 5 | 42 ± 7.7 | 40 ± 3.8 | 44 ± 5.1 | 44 ± 6 | 44 ± 8.7 | 46 ± 5.9 | 2.7 ± 3.2 | 3.9 ± 3.8 | 2.8 ± 3.1 | -4 ± 3 | -2 ± 5 | -1 ± 3 | -6 ± 5 | 15 ± 2.1 | -3 ± 6 | 28 ± 4.5 | -12 ± 5 | blood pressure reduction effect compared with Azilsartan medoxomil ([1]; SHR): obviously superior to that of the Azilsartan medoxomil positive drug; inhibition in vivo at 2 mg/kg [2]: 32 ± 5.2%; blood pressure reduction effect compared with Azilsartan medoxomil [2]: close to that of Azilsartan medoxomil |
| CCOc1nc2cccc(C(=O)OCc3oc(=S)oc3C)c2n1Cc1ccc(-c2ccccc2-c2noc(=O)[nH]2)cc1 [QR01013] | 14 ± 5.9 | 15 ± 7.1 | 17 ± 5.8 | 24 ± 5.8 | 28 ± 6 | 27 ± 6.4 | 34 ± 5.9 | 38 ± 5.7 | 39 ± 7.1 | 4.2 ± 2.7 | 6.2 ± 2.3 | 3.4 ± 4.2 | -3 ± 4 | 5 | -5 ± 4 | -6 ± 4 | 16 ± 3 | -8 ± 3 | 25 ± 4.5 | -10 ± 5 | inhibition in vivo at 2 mg/kg [2]: 34 ± 7.1% |
| CCOc1nc2cccc(C(=O)OCc3no[n+]([O-])c3C#N)c2n1Cc1ccc(-c2ccccc2-c2noc(=O)[nH]2)cc1 [QR01036] | 20 ± 5.3 | 24 ± 8.6 | 24 ± 5.9 | 35 ± 7.8 | 35 ± 4.6 | 40 ± 7.8 | 46 ± 9.2 | 45 ± 8.3 | 48 ± 7.2 | 2.8 ± 2.1 | 5.2 ± 3.5 | 6.3 ± 2 | -1 ± 6 | -8 ± 2 | -5 ± 5 | -12 ± 9 | 19 ± 3.5 | -18 ± 7 | 38 ± 4.2 | -25 ± 7 | inhibition in vivo at 0.5 mg/kg ([1]; Rattus norvegicus, 0.5 mg/kg oral, SHR, read-out: Heart Rate (effect on reducing heart rate)): 14 ± 4%; inhibition in vivo at 1 mg/kg [1, 9]: 25 ± 2%; inhibition in vivo at 2 mg/kg [1, 13]: 21 ± 3%; blood pressure reduction effect compared with Azilsartan medoxomil ([1]; SHR): obviously superior to that of the Azilsartan medoxomil positive drug; reduction effects on the heart rate of SHR rats [1]: significant reduction effects on the heart rate; inhibition in vivo at 2 mg/kg [2]: 46 ± 5%; blood pressure reduction at 24 hours after the administration [2]: 24%; blood pressure reduction effect compared with Azilsartan medoxomil [2]: obviously superior to that of the Azilsartan medoxomil positive drug; lasting time of the blood pressure reduction effect compared with Azilsartan medoxomil [2]: close to that of Azilsartan medoxomil |
